{"source": "ChEMBL document CHEMBL1143974", "about": "“Synthesis and cyclooxygenase inhibitory activities of linear 1-(methanesulfonylphenyl or benzenesulfonamido)-2-(pyridyl)acetylene regioisomers” (Bioorg Med Chem, 2008)", "key": {"[1]": {"molecular_target": "T1, Prostaglandin G/H synthase 1 (Ovis aries, UniProt P05979)", "T1 sequence (P05979 whole entry)": "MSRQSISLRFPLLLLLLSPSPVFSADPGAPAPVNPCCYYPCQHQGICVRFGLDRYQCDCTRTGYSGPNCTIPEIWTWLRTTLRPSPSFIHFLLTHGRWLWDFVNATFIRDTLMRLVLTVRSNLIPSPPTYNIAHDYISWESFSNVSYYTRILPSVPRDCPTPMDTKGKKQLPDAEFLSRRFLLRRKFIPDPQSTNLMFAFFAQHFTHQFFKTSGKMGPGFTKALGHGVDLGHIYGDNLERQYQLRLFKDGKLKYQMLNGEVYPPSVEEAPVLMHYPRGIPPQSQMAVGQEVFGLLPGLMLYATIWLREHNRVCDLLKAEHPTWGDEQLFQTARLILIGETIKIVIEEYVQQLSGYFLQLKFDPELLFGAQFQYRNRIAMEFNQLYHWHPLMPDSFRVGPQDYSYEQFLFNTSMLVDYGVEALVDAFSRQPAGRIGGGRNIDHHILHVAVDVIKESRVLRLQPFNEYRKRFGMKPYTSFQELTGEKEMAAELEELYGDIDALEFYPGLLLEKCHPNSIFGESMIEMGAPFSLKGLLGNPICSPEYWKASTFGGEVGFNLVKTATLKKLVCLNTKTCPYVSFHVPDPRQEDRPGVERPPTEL", "assay": "Inhibition of ovine COX1 by enzyme immuno assay"}, "Rattus norvegicus": {"system": "Rattus norvegicus", "assay": "Antiinflammatory activity against carrageenan-induced foot paw edema in orally dosed rat after 3 hrs", "assay_type": "functional", "details": "po, read-out: ID50 (the source's name)"}, "Ovis aries": {"organism": "Ovis aries", "assay": "Selectivity index, ratio of IC50 for ovine COX1 to IC50 for ovine COX2"}}}
{"smiles": "Cc1cccnc1C#Cc1ccc(S(N)(=O)=O)cc1", "values": [{"measurement": "IC50", "setting": "[1]", "value": 1.3, "unit": "µM"}, {"measurement": "ED50", "setting": "Rattus norvegicus", "value": 76.6, "unit": "mg/kg"}]}
{"smiles": "CS(=O)(=O)c1cccc(C#Cc2cccnc2)c1", "values": [{"measurement": "Ratio IC50", "setting": "Ovis aries", "value": "> 3.1"}, {"measurement": "IC50", "setting": "[1]", "value": "> 100", "unit": "µM"}]}
{"smiles": "NS(=O)(=O)c1ccc(C#Cc2ccncc2)cc1", "values": [{"measurement": "IC50", "setting": "[1]", "value": 3.9, "unit": "µM"}]}
{"smiles": "CS(=O)(=O)c1ccccc1C#Cc1ccncc1", "values": [{"measurement": "IC50", "setting": "[1]", "value": 0.26, "unit": "µM"}]}
{"smiles": "CS(=O)(=O)c1cccc(C#Cc2ccccn2)c1", "values": [{"measurement": "IC50", "setting": "[1]", "value": 31.6, "unit": "µM"}, {"measurement": "ED50", "setting": "Rattus norvegicus", "value": 76.4, "unit": "mg/kg"}]}
{"smiles": "CS(=O)(=O)c1ccc(C#Cc2cccnc2)cc1", "values": [{"measurement": "IC50", "setting": "[1]", "value": 3.2, "unit": "µM"}, {"measurement": "ED50", "setting": "Rattus norvegicus", "value": 59.9, "unit": "mg/kg"}]}
{"smiles": "CS(=O)(=O)c1ccc(C#Cc2ccccn2)cc1", "values": [{"measurement": "IC50", "setting": "[1]", "value": 31.7, "unit": "µM"}]}
{"smiles": "Cc1cccnc1C#Cc1ccccc1S(C)(=O)=O", "values": [{"measurement": "IC50", "setting": "[1]", "value": 2, "unit": "µM"}]}
{"smiles": "CS(=O)(=O)c1cccc(C#Cc2ccncc2)c1", "values": [{"measurement": "Ratio IC50", "setting": "Ovis aries", "value": "> 312"}, {"measurement": "IC50", "setting": "[1]", "value": "> 100", "unit": "µM"}]}
{"smiles": "NS(=O)(=O)c1ccc(C#Cc2ccccn2)cc1", "values": [{"measurement": "IC50", "setting": "[1]", "value": 9.3, "unit": "µM"}]}
{"smiles": "CS(=O)(=O)c1ccccc1C#Cc1ccccn1", "values": [{"measurement": "IC50", "setting": "[1]", "value": 0.28, "unit": "µM"}]}
{"smiles": "Cc1cccnc1C#Cc1ccc(S(C)(=O)=O)cc1", "values": [{"measurement": "IC50", "setting": "[1]", "value": "> 100", "unit": "µM"}]}
{"smiles": "CC(=O)Oc1ccccc1C(=O)O", "note": "[ASPIRIN]", "values": [{"measurement": "ED50", "setting": "Rattus norvegicus", "value": 129, "unit": "mg/kg"}]}
